# Measured values taken from patent US20160075653A1, “NEMATICIDAL N-(PHENYLCYCLOALKYL)CARBOXAMIDES AND N-(PHENYLCYCLOALKYL)THIOCARBOXAMIDES” (BAYER CROPSCIENCE AKTIENGESELLSCHAFT, priority 2013, published 2016).
# Read-outs that look alike come from different tables or passages of the source.
# Key:
# Meloidogyne incognita = Meloidogyne incognita test (MELGIN), gall formation on salad seedlings; format: in vivo; details: application rate 20 ppm, after 14 days
# Experimental: Meioidovnve incomita—Test (MELGIN)
# Solvent: 125.0 parts by weight of acetone
# To produce a suitable preparation of active compound, 1 part by weight of active compound is mixed with the stated amount of solvent, and the concentrate is diluted with water to the desired concentration.
# Vessels are filled with sand, a solution of the active ingredient, a suspension containing eggs and larvae of the southern root-knot nematode (Meloidogyne incognita) and salad seeds. The salad seeds germinate and the seedlings grow. Galls develop in the roots.
# After 14 days the nematicidal activity is determined on the basis of the percentage of gall formation. 100% means that no galls were found; 0% means the number of galls found on the roots of the treated plants was equal to that in untreated control plants.
# [1] = Measurement of log P values by HPLC on reversed phase columns (methods [a] pH 2.3, [b] pH 2.7, [c] pH 7.8); format: physicochemical; details: for chromatographic logP: reversed phase HPLC columns
# Summary of the method: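 Determined per EEC Directive 79/831 Annex V.A8 by reversed-phase HPLC, 10-95% acetonitrile gradient: [a] pH 2.3, 0.1% phosphoric acid; [b] LC-MS, pH 2.7, 0.1% formic acid; [c] LC-MS, pH 7.8, 0.001 molar ammonium hydrogen carbonate. Calibrated with C3-C16 alkan-2-ones by retention-time interpolation.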
# [2] = HPLC on reversed phase column, method [b], pH 2.7
# [3] = HPLC on reversed phase column, method [c], pH 7.8
# [4] = method [b], HPLC reversed phase, pH 2.7
# [5] = method [c], HPLC reversed phase, pH 7.8
# [6] = HPLC reversed phase, method [b] (pH 2.7)
SMILES,nematicidal activity (percentage of gall formation; 100% = no galls) (Meloidogyne incognita) [%],"logP [1, 2]","logP [1, 6]",other results
Cc1occc1C(=O)N[C@@H]1C[C@@H]1c1ccc(Cl)cc1Cl (relative stereo) [Compound 611],90,3.02^[b],,"logP [1, 3]: 2.89^[c];"
O=C(N[C@@H]1CC[C@@H]1c1cccc(F)c1C(F)(F)F)c1ncccc1Cl (relative stereo) [Compound 617],100,2.97^[b],,
O=C(N[C@@H]1CC[C@@H]1c1ccccc1C(F)(F)F)c1cccnc1 (relative stereo) [Compound 619],90,2.06^[b],,
O=C(N[C@@H]1CC[C@@H]1c1ccccc1C(F)(F)F)c1nccnc1Cl (relative stereo) [Compound 623],100,2.79^[b],,
O=C(N[C@@H]1CC[C@@H]1c1cccc(F)c1C(F)(F)F)c1ccccc1[N+](=O)[O-] (relative stereo) [Compound 630],100,2.94^[b],,
O=C(N[C@@H]1CC[C@@H]1c1cccc(F)c1C(F)(F)F)c1cccnc1 (relative stereo) [Compound 631],90,2.12^[b],,
O=C(N[C@@H]1CC[C@@H]1c1ccccc1C(F)(F)F)c1ccccc1[N+](=O)[O-] (relative stereo) [Compound 638],100,2.93^[b],,
O=C(N[C@@H]1CC[C@@H]1c1cccc(F)c1C(F)(F)F)c1c(F)cccc1F (relative stereo) [Compound 639],100,3.08^[b],,
O=C(N[C@@H]1CC[C@@H]1c1cccc(F)c1C(F)(F)F)c1cccnc1C(F)(F)F (relative stereo) [Compound 641],100,2.97^[b],,
O=C(N[C@@H]1CC[C@H]1c1cccc(F)c1C(F)(F)F)c1cccnc1C(F)(F)F (relative stereo) [Compound 642],90,3.15^[b],,
O=C(N[C@@H]1CC[C@@H]1c1cccc(F)c1C(F)(F)F)c1nccnc1Cl (relative stereo) [Compound 645],100,2.78^[b],,
O=C(N[C@@H]1CC[C@@H]1c1cccc(F)c1C(F)(F)F)c1cccnc1Cl (relative stereo) [Compound 647],100,2.66^[b],,
O=C(N[C@@H]1C[C@@H]1c1ccc(Cl)cc1Cl)c1ncccc1Cl (relative stereo) [Compound 649],100,2.93^[b],,"logP [1, 3]: 2.91^[c];"
"O=C(N[C@H]1CCC1c1c(F)cccc1F)c1cccnc1C(F)(F)F (stereo in doubt) [Compound 236, cis-N-[2-(2,6-difluorophenyl)cyclobutyl]-2-(trifluoromethyl)nicotinamide]",100,,,"chromatographic logP ([1]; HPLC-MS, method letter not given, read-out: log P): 2.6; chromatographic logP ([1]; pH 2.7, method [b], HPLC reversed phase, pH 2.7, read-out: logP): 2.6"
Cn1cc(C(=O)NC2CC2c2ccc(Cl)cc2)c(C(F)(F)F)n1 (stereo not shown) [Compound 11],90,,,"logP ([1]; HPLC on reversed phase columns, method [b], pH 2.7): 3.43^[b]"
O=C(NC1CC1c1ccc(Cl)cc1Cl)c1sccc1I (stereo not shown) [Compound 212],100,,,"logP [1, 4]: 4.10^[b]; logP [1, 5]: 4.04^[c];"
O=C(NC1CC1c1ccc(Cl)cc1Cl)c1sccc1Cl (stereo not shown) [Compound 213],100,,,"logP [1, 4]: 4.08^[b]; logP [1, 5]: 4.02^[c];"
O=C(NC1CC1c1ccc(Cl)cc1Cl)c1occc1Br (stereo not shown) [Compound 214],100,,,"logP [1, 4]: 3.56^[b]; logP [1, 5]: 3.44^[c];"
O=C(NC1CCC1c1ccccc1C(F)(F)F)c1ncccc1Cl (stereo not shown) [Compound 215],90,,,"logP [1, 4]: 3.01^[b]"
O=C(NC1CCC1c1ccccc1C(F)(F)F)c1ccccc1Br (stereo not shown) [Compound 216],100,,,"logP [1, 4]: 3.32^[b]"

SMILES,nematicidal activity (percentage of gall formation; 100% = no galls) (Meloidogyne incognita) [%],"logP [1, 2]","logP [1, 6]",other results
O=C(NC1CCC1c1ccccc1C(F)(F)F)c1ccc(Cl)cc1Cl (stereo not shown) [Compound 217],90,,,"logP [1, 4]: 3.81^[b]"
O=C(NC1CCC1c1c(F)cccc1F)c1ccccc1Br (stereo not shown) [Compound 227],100,,,"logP [1, 4]: 2.97^[b]"
O=C(NC1CCC1c1ccccc1C(F)(F)F)c1cccnc1C(F)(F)F (stereo not shown) [Compound 235],100,,,"logP [1, 4]: 2.94^[b]"
O=C(NC1CC1c1ccc(Cl)cc1)c1ccccc1C(F)(F)F (stereo not shown) [Compound 271],90,,2.98^[b],"logP ([1]; HPLC reversed phase, method [c] pH 7.8): 2.94^[c];"
O=C(NC1CCCC1c1ccccc1Cl)c1ccccc1C(F)(F)F (stereo not shown) [Compound 296],90,,3.55^[b],
O=C(NC1CCCC1c1ccccc1Cl)c1cccnc1C(F)(F)F (stereo not shown) [Compound 297],100,,3.05^[b],
O=C(NC1CCCC1c1c(F)cccc1F)c1ccccc1Cl (stereo not shown) [Compound 311],90,,3.24^[b],
O=C(NC1CCCC1c1c(F)cccc1F)c1cccnc1C(F)(F)F (stereo not shown) [Compound 313],100,,2.87^[b],
O=C(NC1CCCC1c1c(F)cccc1F)c1ccccc1I (stereo not shown) [Compound 322],90,,3.40^[b],
O=C(NC1CCCC1c1ccccc1Br)c1cccnc1C(F)(F)F (stereo not shown) [Compound 346],100,,3.13^[b],
O=C(NC1CCCC1c1ccccc1Br)c1cccnc1Cl (stereo not shown) [Compound 348],90,,2.80^[b],
O=C(NC1CCCC1c1ccccc1Br)c1ccccc1Cl (stereo not shown) [Compound 349],90,,3.52^[b],
O=C(NC1CCCC1c1ccc(Cl)cc1Cl)c1ccccc1I (stereo not shown) [Compound 352],100,,4.04^[b],
O=C(NC1CCCC1c1ccc(Cl)cc1Cl)c1ccccc1C(F)(F)F (stereo not shown) [Compound 353],100,,4.04^[b],
O=C(NC1CCCC1c1ccc(Cl)cc1Cl)c1cccnc1C(F)(F)F (stereo not shown) [Compound 358],100,,3.54^[b],
O=C(NC1CCCCC1c1ccc(Cl)cc1Cl)c1cccnc1C(F)(F)F (stereo not shown) [Compound 414],100,,4.03^[b],
O=C(NC1CC1c1ccc(Cl)cc1Cl)c1ccccc1C(F)(F)F (stereo not shown) [Compound 424],100,,3.46^[b],
O=C(NC1CC1c1ccc(Cl)cc1Cl)c1cccnc1Cl (stereo not shown) [Compound 425],100,,2.62^[b],
O=C(NC1CCC1c1ccccc1C(F)(F)F)c1ccccc1 (stereo not shown) [Compound 426],100,,3.08^[b],
